In patent US20220241264A1, “METHODS FOR PREVENTION AND TREATMENT OF FIBROMYALGIA BY CONTACT VASODILATORS” (priority 2019, published 2022):

Test system: fibromyalgia pain in soft tissue regions and myofacial regions
Settings: for patient-reported pain levels in the treated regions: daily use in a topical form on skin adjacent to regions where pain is experienced, during treatment; for patient-reported pain levels after treatment is halted: treatment halted after several months, report weeks later
From the text: The following prophetic examples are of cases that address the painful experiences associated with fibromyalgia. The examples also describe a new, safe, simple and until now, an unknown pharmaceutical solution to the problem of fibromyalgia syndrome: the novel use of vasodilators such as calcium channel blockers, ACE inhibitors, and angiotensin receptor blockers. Vasodilators are not analgesics, but they resolve or mitigate the pain associated with fibromyalgia.
A patient is diagnosed with fibromyalgia, and suffers from pain in soft tissue regions and myofacial regions. […] After several months, treatment is halted.
A patient is diagnosed with fibromyalgia, and suffers from pain in soft tissue regions and myofacial regions. Daily use of Amlodipine in a topical form is prescribed for application to skin adjacent to regions where pain is experienced. […] After several months, treatment is halted.
A patient is diagnosed with fibromyalgia, and suffers from pain in soft tissue regions and myofacial regions. Daily use of enalapril in a topical form is prescribed for application to skin adjacent to regions where pain is experienced. […] After several months, treatment is halted.
A patient is diagnosed with fibromyalgia, and suffers from pain in soft tissue regions and myofacial regions. Daily use of lisinopril in a topical form is prescribed for application to skin adjacent to regions where pain is experienced. […] After several months, treatment is halted.
A patient is diagnosed with fibromyalgia, and suffers from pain in soft tissue regions and myofacial regions. Daily use of losartan in a topical form is prescribed for application to skin adjacent to regions where pain is experienced. […] After several months, treatment is halted.
A patient is diagnosed with fibromyalgia, and suffers from pain in soft tissue regions and myofacial regions. Daily use of irbesartan in a topical form is prescribed for application to skin adjacent to regions where pain is experienced. […] After several months, treatment is halted.

| Compound | patient-reported pain levels in the treated regions | patient-reported pain levels after treatment is halted |
| --- | --- | --- |
| CCOC(=O)[C@H](CCc1ccccc1)N[C@@H](C)C(=O)N1CCC[C@H]1C(=O)O [enalapril] | reduction in pain levels | reduction in pain levels has been maintained |
| CCCCC1=NC2(CCCC2)C(=O)N1Cc1ccc(-c2ccccc2-c2nnn[nH]2)cc1 [irbesartan] | reduction in pain levels | reduction in pain levels has been maintained |
| NCCCC[C@H](N[C@@H](CCc1ccccc1)C(=O)O)C(=O)N1CCC[C@H]1C(=O)O [lisinopril] | reduction in pain levels | reduction in pain levels has been maintained |
| CCCCc1nc(Cl)c(CO)n1Cc1ccc(-c2ccccc2-c2nn[nH]n2)cc1 [losartan] | reduction in pain levels | reduction in pain levels has been maintained |
